Source: article PMC10740580, “Benzothiazole-Phthalimide Hybrids as Anti-Breast Cancer and Antimicrobial Agents” (Antibiotics, 2023)

Tests used:
MDA-MB-231 cells = test: TUNEL assay (DNA damage); assay type: cell-based, human; settings: 50 μM, 24 h
Description: To further assess the effect of 3h treatment in MDA-MB-231, the terminal deoxynucleotidyl transferase dUTP nick-end labeling (TUNEL) assay was used. Thus, 3h or Thalidomide, as reference drug, were administered to the cells, for 24 h, at 25 and 50 μM concentrations, respectively, or with only the vehicle (DMSO), as negative control and then processed as outlined in the experimental section. […] Nuclei were counterstained with blue DAPI (Figure 2, panels A), and merge channels were also shown (Figure 2, panels C), where it is evident the perfect superposition of green and blue signals. […] Images taken from bright fields were also included (Figure 2, panels D).
DNA damage and cell death were analyzed by means of the TUNEL assay as indicated by the manufacturer’s protocols (CF™488A TUNEL Assay Apoptosis Detection Kit, Biotium, Hayward, CA, USA), with few changes, as in [42]. DAPI staining (0.2 μg/mL, Sigma Aldrich, Milan, Italy) was adopted for cell nuclei. Observations were made at 20× magnification using a fluorescence microscope (Leica DM 6000, Leica Microsystem Srl, Buccinasco, Italy). LAS-X software (Version: 3.5.7.23225; Leica Microsystem Srl, Buccinasco, Italy) was employed for the acquisition and processing of the images. Images are representative of two separate experiments from which different fields were acquired.
Figure 2 TUNEL assay. […]

BALB/3T3 cells [1] = test: MTT assay, BALB/3T3 fibroblasts; assay type: cell-based; settings: mouse fibroblasts, read-out: IC50 BALB/3T3 (MTT, lack of toxicity)
Description: (§1) Cells were treated for 24 h, and N-acetylcystein (NAC), a compound well-known for its antioxidant capacity, was used as a reference molecule. […] Compound 3h was able to reduce ROS formation by 61.4 ± 2% at the maximum concentration of 160 μM in the BALB/3T3 cells, as shown by the quantification of fluorescence intensity, proving compound 3h to be a good ROS scavenger.
The four cell lines used in this work (MCF-7, MDA-MB-231, MCF-10A, and 3T3-L1) were obtained from the American Type Culture Collection (ATCC, Manassas, VA, USA). All cell lines were maintained at 37 °C in a humidified atmosphere of 95% air and 5% CO2 and periodically screened for contamination. […]
Cell viability was evaluated by means of the 3-(4,5-dimethylthiazol-2-y1)-2,5-diphenyltetra zolium bromide (MTT, Sigma-Aldrich, Milan, Italy) assay. […] Cells were lysed with DMSO after 2 h of incubation at 37 °C, and optical density at 570 nm was then determined with a microplate reader. Using GraphPad Prism 9 software (GraphPad Inc., San Diego, CA, USA), the mean absorbance for each sample was expressed as a percentage over the control and plotted vs. drug concentrations to establish the IC50 values. […]

BALB/3T3 cells [2] = test: ROS protection assay (DCFH-DA, H2O2-induced); assay type: cell-based, mouse; settings: 160 μM, BALB/3T3, DCFH-DA
Description: as §1
ROS production was detected using the oxidation-sensitive fluorescent probe 2′,7′-dichlorodihydrofluorescein diacetate (DCFH-DA, D6665; Sigma-Aldrich, St. Louis, MO, USA) by modifying the method described by Wang and James. A black 96-well cell culture plate (Costar, Sigma Aldrich, St. Louis, MO, USA) was used to seed viable cells. After 24 h, the cells were treated with different concentrations of compound 3h (0.1–160 µM) for 1 h at 37 °C in 5% CO2. At the end of the treatment, cells were incubated with 2′,7′-dichlorofluorescein diacetate (DCFH-DA) for 30′, used at a concentration of 25 µM, in 5% CO2. […] The formation of fluorescent dichlorofluorescein (DCF), due to the oxidation of DCFH in the presence of ROS, was read at 530 nm using a microplate reader, the Tecan Infinite M1000 Pro (Tecan, Cernusco S.N., Italy), and DMSO medium was used for control cells. The data were analyzed for statistical significance (p < 0.0001) using a one-way ANOVA, followed by Dunnett’s test performed by GraphPad Prism 9. […]

SMILES: O=C1c2ccccc2C(=O)N1c1nc2ccc(Oc3ccccc3)cc2s1 [3h, 2-[6-Phenoxy-1,3-benzothiazol-2-yl]-1H-isoindole-1,3(2H)-dione]
- DNA damage (TUNEL, green nuclear fluorescence) (MDA-MB-231 cells): promoted DNA damage
- IC50 (BALB/3T3 cells [1]): > 200 µM
- reduction of ROS formation (BALB/3T3 cells [2]): 61.4 ± 2%
